Reference: PubChem BioAssay AID248 (DTP/NCI, 2004)
“And” between values parts separate entries of the source, which are not always exact repeats. Equal entries are not always repeated. Inconclusive results and toxic doses are left out. Cut-off read from the data, not from the text of the source: active = T/C of 150% or more; inactive = T/C below 125%.

Test system: L1210 leukemia ip in BDF1 mice, survival T/C
Assay: NCI In Vivo Anticancer Drug Screen. Data for tumor model L1210 Leukemia (intraperitoneal) in B6D2F1 (BDF1) mice
Conditions: endpoint: mean survival time, higher = longer survival
Outline: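 Tumor was transplanted into mice, which were then dosed with test compound or vehicle alone. Survival was recorded for each group, and the treated figure was expressed relative to the control figure.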

[1] = dose: 100.0 mg/kg/injection, schedule: Q01DX001 (ip), vehicle: saline
[2] = dose: 200.0 mg/kg/injection, schedule: Q01DX001 (ip), vehicle: saline
[3] = dose: 400.0 mg/kg/injection, schedule: Q01DX001 (ip), vehicle: saline
[4] = dose: 200.0 mg/kg/injection, schedule: Q01DX001 (ip), vehicle: Klucel (hydroxypropylcellulose) (HPC)
[5] = dose: 100.0 mg/kg/injection, schedule: Q01DX001 (ip), vehicle: saline with Tween-80
[6] = dose: 200.0 mg/kg/injection, schedule: Q01DX001 (ip), vehicle: saline with Tween-80
[7] = dose: 400.0 mg/kg/injection, schedule: Q01DX001 (ip), vehicle: saline with Tween-80
[8] = dose: 30.0 mg/kg/injection, schedule: Q01DX Z (ip), vehicle: saline
[9] = dose: 100.0 mg/kg/injection, schedule: Q04DX003 (ip), vehicle: Klucel (hydroxypropylcellulose) (HPC)
[10] = dose: 200.0 mg/kg/injection, schedule: Q04DX003 (ip), vehicle: Klucel (hydroxypropylcellulose) (HPC)
[11] = dose: 400.0 mg/kg/injection, schedule: Q04DX003 (ip), vehicle: Klucel (hydroxypropylcellulose) (HPC)
[12] = dose: 100.0 mg/kg/injection, schedule: Q01DX009 (ip), vehicle: Klucel (hydroxypropylcellulose) (HPC)
[13] = dose: 200.0 mg/kg/injection, schedule: Q01DX009 (ip), vehicle: Klucel (hydroxypropylcellulose) (HPC)
[14] = dose: 400.0 mg/kg/injection, schedule: Q01DX009 (ip), vehicle: Klucel (hydroxypropylcellulose) (HPC)
[15] = dose: 50.0 mg/kg/injection, schedule: Q01DX009 (ip), vehicle: saline

Measured: T/C

Cc1ccc(S(=O)(=O)Oc2ccccc2NS(=O)(=O)c2ccccc2)cc1
inactive: [1] 101 % of control | dose: 100.0 mg/kg/injection, schedule: Q04DX003 (ip), vehicle: acetone 96 % of control | [2] 95 % of control | dose: 200.0 mg/kg/injection, schedule: Q04DX003 (ip), vehicle: acetone 92 % of control | [3] 95 % of control | dose: 400.0 mg/kg/injection, schedule: Q04DX003 (ip), vehicle: acetone 87 % of control

Cc1nc(N)nc2c1CCC(O)S2 (stereo unspecified)
inactive: dose: 50.0 mg/kg/injection, schedule: Q01DX001 (ip), vehicle: Klucel (hydroxypropylcellulose) (HPC) 89 % of control | [4] 86 % of control

CC(CC(C)(C)C)C(=O)CCC(C)(C)C (stereo unspecified)
inactive: [5] 103 % of control | [6] 95 % of control | [7] 101 % of control

NC(N)=N/N=C/c1cccs1
inactive: dose: 15.0 mg/kg/injection, schedule: Q01DX Z (oral), vehicle: saline 90 % of control | [8] 90 % of control | dose: 30.0 mg/kg/injection, schedule: Q01DX Z (oral), vehicle: saline 92 % of control | dose: 60.0 mg/kg/injection, schedule: Q01DX Z (oral), vehicle: saline 92 % of control

CC(C)(N)CNCC(C)(C)N
inactive: [1] 97 % of control | [2] 111 % of control

O=C(NCCCCC(NC(=O)c1ccccc1)C(=O)NCCCCCCCCCCNC(=O)C(CCCCNC(=O)c1ccccc1)NC(=O)c1ccccc1)c1ccccc1 (stereo unspecified)
inactive: dose: 10.0 mg/kg/injection, schedule: Q01DX Z (ip), vehicle: saline 100 % of control | [8] 90 % of control

O=C(Cc1ccc([N+](=O)[O-])cc1)Nc1cccc(O)c1
inactive: [9] 97 % of control | [10] 108 % of control | [11] 101 % of control

COc1cc(C(=O)OC2=CC(=O)c3nc(OC(=O)c4cc(OC)c(OC)c(OC)c4)ccc3C2=O)cc(OC)c1OC
inactive: [1] 93 % of control | [2] 91 % of control | [3] 95 % of control

CCOC(=O)C1(C(=O)OCC)CCC(O)N1C(=O)c1cc(OC)c(OC)cc1[N+](=O)[O-] (stereo unspecified)
inactive: [9] 97 % of control | [10] 99 % of control | [11] 97 % of control

CC(C)N(CCC#N)C(=S)Nc1cccc2ccccc12
inactive: [12] 93 % of control | [13] 87 % of control | [14] 102 % of control

O=C(Nc1cccnc1)c1ccccc1
inactive: dose: 6.25 mg/kg/injection, schedule: Q04DX003 (ip), vehicle: saline with Tween-80 92 % of control | dose: 12.5 mg/kg/injection, schedule: Q04DX003 (ip), vehicle: saline with Tween-80 97 % of control | dose: 25.0 mg/kg/injection, schedule: Q04DX003 (ip), vehicle: saline with Tween-80 99 % of control

O=C1Nc2ccc3c(c2/C1=C\c1cc2c(cc1Br)OCO2)OCO3
inactive: dose: 50.0 mg/kg/injection, schedule: Q01DX001 (ip), vehicle: alcohol 93 % of control | dose: 100.0 mg/kg/injection, schedule: Q01DX001 (ip), vehicle: alcohol 93 % of control | dose: 200.0 mg/kg/injection, schedule: Q01DX001 (ip), vehicle: alcohol 98 % of control | dose: 400.0 mg/kg/injection, schedule: Q01DX001 (ip), vehicle: alcohol 96 % of control

Oc1ccc(Br)cc1/C=N/N1CCN(/N=C/c2cc(Br)ccc2O)CC1
inactive: [1] 96 % of control | [2] 92 % of control | [3] 90 % of control

CNC(C)Cc1ccc2c(c1)OCO2 (stereo unspecified)
inactive: dose: 12.5 mg/kg/injection, schedule: Q01DX009 (ip), vehicle: saline 105 % of control | dose: 25.0 mg/kg/injection, schedule: Q01DX009 (ip), vehicle: saline 98 % of control | dose: 25.0 mg/kg/injection, schedule: Q04DX003 (ip), vehicle: saline 106 % of control | [15] 100 % of control and 104 % of control | dose: 50.0 mg/kg/injection, schedule: Q04DX003 (ip), vehicle: saline 104 % of control | dose: 75.0 mg/kg/injection, schedule: Q04DX003 (ip), vehicle: saline 92 % of control | dose: 100.0 mg/kg/injection, schedule: Q04DX003 (ip), vehicle: saline 98 % of control

CC(C(=O)O)(c1c[nH]c2ccccc12)c1c[nH]c2ccccc12
inactive: dose: 50.0 mg/kg/injection, schedule: Q01DX001 (ip), vehicle: saline 106 % of control | [1] 103 % of control | [2] 92 % of control | [3] 86 % of control

COc1cc2c(cc1OC)C1(NCC2)C(=O)Nc2c(Cl)cccc21 (stereo unspecified)
inactive: dose: 30.0 mg/kg/injection, schedule: Q04DX002 (ip), vehicle: saline 124 % of control | dose: 60.0 mg/kg/injection, schedule: Q04DX002 (ip), vehicle: saline 113 % of control | dose: 120.0 mg/kg/injection, schedule: Q04DX002 (ip), vehicle: saline 117 % of control

CC(C)OC(=O)C(C)OC(=O)OCCOCCOC(=O)OC(C)C(=O)OC(C)C (stereo unspecified)
inactive: [1] 96 % of control | [2] 100 % of control | [3] 100 % of control

CC1(C)CC(=O)C=C(NCc2ccccc2)C1
inactive: dose: 50.0 mg/kg/injection, schedule: Q01DX009 (ip), vehicle: acetone 96 % of control | dose: 100.0 mg/kg/injection, schedule: Q01DX009 (ip), vehicle: acetone 95 % of control | dose: 200.0 mg/kg/injection, schedule: Q01DX009 (ip), vehicle: acetone 101 % of control

CCN(c1ccccc1)S(=O)(=O)C(C)S(=O)(=O)N(CC)c1ccccc1
inactive: [5] 97 % of control | [6] 94 % of control | [7] 103 % of control

CCOC(=O)c1ccc(NC(=S)NCc2cccnc2)cc1
inactive: [12] 106 % of control | [13] 97 % of control | [14] 102 % of control

Cc1ncc(CO)c(C2NOCc3c(Cl)cc4c(c32)OCO4)c1O (stereo unspecified)
inactive: dose: 100.0 mg/kg/injection, schedule: Q01DX009 (ip), vehicle: saline with Tween-80 90 % of control | dose: 200.0 mg/kg/injection, schedule: Q01DX009 (ip), vehicle: saline with Tween-80 95 % of control | dose: 400.0 mg/kg/injection, schedule: Q01DX009 (ip), vehicle: saline with Tween-80 94 % of control

CCOC(=S)c1ccc(S(=O)(=O)NC)cc1
inactive: dose: 100.0 mg/kg/injection, schedule: Q01DX001 (ip), vehicle: Klucel (hydroxypropylcellulose) (HPC) 109 % of control | [4] 100 % of control | dose: 400.0 mg/kg/injection, schedule: Q01DX001 (ip), vehicle: Klucel (hydroxypropylcellulose) (HPC) 110 % of control

CN1CSCSC1
inactive: [15] 104 % of control | dose: 100.0 mg/kg/injection, schedule: Q01DX009 (ip), vehicle: saline 98 % of control | dose: 100.0 mg/kg/injection, schedule: Q04DX003 (ip), vehicle: saline with Tween-80 101 % of control | dose: 200.0 mg/kg/injection, schedule: Q04DX003 (ip), vehicle: saline with Tween-80 100 % of control | dose: 400.0 mg/kg/injection, schedule: Q04DX003 (ip), vehicle: saline with Tween-80 97 % of control

O=NN1CC2CCC1CC2
inactive: dose: 2.5 mg/kg/injection, schedule: Q01DX009 (ip), vehicle: saline 109 % of control | dose: 5.0 mg/kg/injection, schedule: Q01DX009 (ip), vehicle: saline 109 % of control | dose: 10.0 mg/kg/injection, schedule: Q01DX009 (ip), vehicle: saline 102 % of control
